Test results reported in patent US10166241B2, “Combination Therapy III” (TURUN YLIOPISTO, priority 2012, dated 2019).

Columns and labels:
[1] = system: T98G glioblastoma cells; test: Apoptosis assay by sub-G0/G1 fraction estimation (apoptotic nuclear fragmentation); type: cell-based, human; details: T98G cells transfected with PME-1 specific dsRNA (so in the source)
Procedure: Apoptosis Assay by Sub-G0/G1 Fraction Estimation: […] After 24 hrs of treatment, both floating and adherent cells were harvested by centrifugation. […] The flow cytometric analysis of PI stained nuclei was performed and the recorded data was analyzed using a FACScan flow cytometer and software (Becton Dickinson) respectively. […] The treatments were given 48 hrs after transfection. Following 24 hrs of drug treatment the cells were lysed in hypotonic buffer, and their nuclei were stained with propidium iodide. The stained cell lysates were analysed to estimate the sub-G0/G1 fraction of fragmented nuclei by flow cytometry (FACS) (FIG. 1B).

[2] = system: T98G glioblastoma cells; test: Colony formation assay in T98G cells; type: cell-based, human
Description: (§1) Cells plated in very low density (4-6×10^3) in 6-well plates were allowed to grow for about 7 days until they form small colonies. These cells were then transfected with Scrambled or HDAC4 siRNA using Lipofectamine RNAiMAX reagent (Invitrogen) according to the manufacturer's instructions. After 48 hrs, treatments were given with indicated concentration of chemical drugs for another 48 hrs. Cell colonies were washed with PBS, fixed with 3.7% formaldehyde and stained with 0.2% crystal violet solution (made in 10% ethanol) for 15 minutes at room temperature each. Excess stain was removed by repeated washings with PBS. Plates were dried and pictures were taken with Epson perfection V700 scanner and analysed with ImageJ.
(§2) The efficacy of the selected potent drugs was then tested by colony formation assay in […] T98G, and highly-tumorigenic U87MG-luciferase (luciferase expressing U87MG cells) glioblastoma cell lines. For this experiment, the cells were grown in 6-well plates in low density until the formation of small colonies which were then transfected with Scrambled or HDAC4 specific siRNA for 48 hrs followed by treatment with STS, PKC412, K252a, UCN-01 and CEP-701 at the indicated concentrations for another 48 hrs.

[3] = system: U87MG-luciferase glioblastoma cells; test: Colony formation assay in U87MG-luciferase cells; type: cell-based; details: HDAC4 siRNA 48 hrs, then drug 48 hrs (combination)
Description: as §1, §2

[4] = HDAC4.2 siRNA transfected cells treated with drug

| Structure (SMILES) | Potentiation % (Scale) ([1]; drug 5 μM) | Potentiation % (amount of apoptotic nuclear fragmentation) ([1]; drug 5 μM) | further results |
| --- | --- | --- | --- |
| Cn1cc(C2=C(c3cn(C4CCN(Cc5ccccn5)CC4)c4ccccc34)C(=O)NC2=O)c2ccccc21 [Enzastaurin, 3-(1-Methyl-1H-indol-3-yl)-4-(1-(1-(2-pyridinylme-thyl)-4-piperidinyl)-1H-indol-3-yl)-1H-pyrrole-2,5-dione] | − ((−) 0-20%) | 10-20% | – |
| O=C1NCc2c1c1c3ccccc3[nH]c1c1[nH]c3ccccc3c21 [K252c, 6,7,12,13-Tetrahydro-5H-indolo[2,3-a]pyrrolo[3,4-c] carbazol-5-one] | − ((−) 0-20%) | 10-20% | – |
| O=C1NC(=O)c2c1c1c3ccccc3[nH]c1c1[nH]c3ccccc3c21 [Arcyriaflavin A, 12,13-Dihydro-5H-indolo [2,3-a] pyrrolo[3,4-c] carbazole-5,7(6H)-dione] | − ((−) 0-20%) | 5-10% | – |
| COC(=O)[C@@]1(O)C[C@H]2O[C@]1(C)n1c3ccccc3c3c4c(c5c6ccccc6n2c5c31)C(=O)NC4 [K252a, (9S,10R,12R)-2,3,9,10,11,12-Hexahydro-10-hydroxy-9-methyl-1-oxo-9,12-epoxy-1H-diindolo [1,2,3-fg:3′,2′,1′-kl] pyrrolo[3,4-i][1,6] benzodi-azocine-10-carboxylic acid methyl ester] | ++++ ((++++) 80-100%) | 80-90% | Potentiation % (Scale) ([1]; drug 3.5 μM): ++ ((++) 40-60%); Potentiation % (amount of apoptotic nuclear fragmentation) ([1]; drug 3.5 μM): 50-60%; colony growth ([2]; HDAC4 siRNA 48 hrs, then drug 48 hrs (combination)): very potent in reducing the colony growth; colony growth [2, 4]: reduction in the colony growth; colony growth [3]: very potent in reducing the colony growth |
| CN[C@@H]1C[C@H]2O[C@@](C)([C@@H]1OC)n1c3ccccc3c3c4c(c5c6ccccc6n2c5c31)C(=O)N[C@H]4O [UCN-01, (9S)-2,3,10,11,12,13-Hexahydro-3α-hydroxy-10α-methoxy-9-methyl-11α-methyl amino-9β,13β-epoxy-1H,9H-diindolo [1,2,3-gh:3′,2′,1′-lm] pyrrolo [3,4-j][1,7] benzo diazonin-1-one] | – | – | Potentiation % (Scale) ([1]; drug 1.5 μM): + ((+) 20-40%); Potentiation % (amount of apoptotic nuclear fragmentation) ([1]; drug 1.5 μM): 20-30%; Potentiation % (Scale) ([1]; drug 2.5 μM): +++ ((+++) 60-80%); Potentiation % (amount of apoptotic nuclear fragmentation) ([1]; drug 2.5 μM): 70-80% |
| Cn1c2ccccc2c2c3c(c4c5ccccc5n(CCC#N)c4c21)CNC3=O [GÖ-6976, 12-(2-Cyanoethyl)-6,7,12,13-tetrahydro-13-methyl-5-oxo-5H-indolo[2,3-a]pyrrolo[3,4-c]carbazole] | − ((−) 0-20%) | 10-20% | – |
| O=C1NC(=O)c2c1c1c3ccccc3n3c1c1c2c2ccccc2n1C1CCC3O1 [SB-218078, 9,10,11,12-Tetrahydro-9,12-epoxy-1H-diindolo [1,2.3-fg:3′,2′,1′-kl] pyrrolo [3,4-i][1,6] benzodi-azocine-1,3(2H)-dione] | + ((+) 20-40%) | 20-30% | – |
| C[C@]12O[C@H](C[C@]1(O)CO)n1c3ccccc3c3c4c(c5c6ccccc6n2c5c31)CNC4=O [CEP-701, (9S,10S,12R)-2,3,9,10,11,12-Hexahydro-10-hydroxy-10-(hydroxyme-thyl)-9-methyl-9,12-epoxy-1H-diindolo [1,2,3-fg:3′,2′,1′-kl] pyrrolo[3,4-i][1, 6] benzo di-azocin-1-one] | +++ ((+++) 60-80%) | 70-80% | Potentiation % (Scale) ([1]; drug 3.5 μM): ++ ((++) 40-60%); Potentiation % (amount of apoptotic nuclear fragmentation) ([1]; drug 3.5 μM): 40-50%; colony growth [3]: less effective |
| COC1C(CO)OC(n2c3c(Cl)cccc3c3c4c(c5c6cccc(Cl)c6[nH]c5c32)C(=O)NC4=O)C(O)C1O (stereo not drawn) [Rebeccamycin, 5h-indolo(2,3-a)pyrrolo(3,4-c)carbazole-5,7(6h)-dione,1,11-dichloro-12,13-dihy;dro-12-(4-o-methyl-beta-d-glucopyra-nosyl)] | − ((−) 0-20%) | 5-10% | – |
| CO[C@@H]1[C@H](N(C)C(=O)c2ccccc2)C[C@H]2O[C@@H]1n1c3ccccc3c3c4c(c5c6ccccc6n2c5c31)C(=O)NC4 [PKC412, [9S-(9α,10β,11β, 13α)]-N-(2,3,10, 11,12,13-Hexahydro-10-methoxy-9-methyl-1-oxo-9,13-epoxy-1 H,9H-diindolo [1,2,3-gh:3′,2′,1′-lm]pyrrolo [3,4-j][1,7]benzodiazonin-11-yl)-N-methyl ben-zamide] | ++ ((++) 40-60%) | 50-60% | colony growth [2, 4]: reduction in the colony growth |
| CN[C@@H]1C[C@H]2O[C@@](C)([C@@H]1OC)n1c3ccccc3c3c4c(c5c6ccccc6n2c5c31)C(=O)NC4 [Staurosporine, [9S-(9α,10β,11β, 13α)]-2,3,10,11, 12,13-Hexa-hydro-10-methoxy-9-methyl-11-(methylamino)-9,13-epoxy-1H,9H-diindolo [1,2,3-gh:3′,2′,1′-lm] pyrrolo [3,4-j][1,7] benzo diazonin-1-one] | – | – | Potentiation % (Scale) ([1]; drug 50 nM): + ((+) 20-40%); Potentiation % (amount of apoptotic nuclear fragmentation) ([1]; drug 50 nM): 30-40%; colony growth [2, 4]: reduction in the colony growth |
